# Data: patent publication US8946282B2, “Indolin-2-one derivatives as protein kinase inhibitors” (Annji Pharmaceutical Co., Ltd., priority 2012, dated 2015)
# Like-named read-outs stand apart in the source and are kept apart here.
# Legend:
# [1] = target: aurora B (Homo sapiens, UniProt Q96GD4); assay: radioisotope-based P81 filter-binding assay, aurora B kinase; assay type: biochemical; settings: for IC50: read-out: Enzyme assay IC50 Aur B
# Method: (§1) Compounds of formula (I)-(IV) were evaluated for abilities in inhibiting protein kinases aurora B and FLT-3 activity using radioisotope-based P81 filter-binding assay (Table 1).
# [2] = target: T1, FLT-3 (Homo sapiens, UniProt P36888); assay: radioisotope-based P81 filter-binding assay, FLT-3 kinase; assay type: biochemical; settings: averaged from two independent dose-response curves; read-out: Enzyme assay IC50 FLT-3
# T1 sequence (P36888 27-993): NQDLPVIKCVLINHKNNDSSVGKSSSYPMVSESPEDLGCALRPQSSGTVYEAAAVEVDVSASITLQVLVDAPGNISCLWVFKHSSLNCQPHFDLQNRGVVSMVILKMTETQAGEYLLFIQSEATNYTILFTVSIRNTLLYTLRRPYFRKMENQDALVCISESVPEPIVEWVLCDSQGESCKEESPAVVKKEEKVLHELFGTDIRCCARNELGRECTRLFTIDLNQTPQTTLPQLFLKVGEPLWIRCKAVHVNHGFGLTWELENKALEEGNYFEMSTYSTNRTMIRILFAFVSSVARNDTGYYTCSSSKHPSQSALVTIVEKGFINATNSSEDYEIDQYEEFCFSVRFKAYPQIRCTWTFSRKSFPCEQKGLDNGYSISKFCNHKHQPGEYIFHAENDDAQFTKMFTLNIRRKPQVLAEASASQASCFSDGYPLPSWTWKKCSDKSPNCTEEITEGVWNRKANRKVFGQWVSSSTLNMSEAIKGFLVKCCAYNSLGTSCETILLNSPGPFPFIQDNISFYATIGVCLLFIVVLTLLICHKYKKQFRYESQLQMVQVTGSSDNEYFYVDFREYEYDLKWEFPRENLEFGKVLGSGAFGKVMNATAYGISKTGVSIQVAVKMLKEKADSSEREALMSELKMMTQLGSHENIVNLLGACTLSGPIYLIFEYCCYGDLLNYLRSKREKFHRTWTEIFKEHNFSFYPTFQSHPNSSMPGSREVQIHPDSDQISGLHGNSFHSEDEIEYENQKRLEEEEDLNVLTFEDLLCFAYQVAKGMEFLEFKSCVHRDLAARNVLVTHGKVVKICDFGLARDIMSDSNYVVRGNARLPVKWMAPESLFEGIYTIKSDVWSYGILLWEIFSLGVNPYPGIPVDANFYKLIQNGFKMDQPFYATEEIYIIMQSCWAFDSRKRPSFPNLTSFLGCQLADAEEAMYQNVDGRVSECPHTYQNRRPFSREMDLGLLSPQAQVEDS
# Method: as §1
# [3] = averaged from two independent dose-response curves
# Sequence of aurora B (Q96GD4 whole entry): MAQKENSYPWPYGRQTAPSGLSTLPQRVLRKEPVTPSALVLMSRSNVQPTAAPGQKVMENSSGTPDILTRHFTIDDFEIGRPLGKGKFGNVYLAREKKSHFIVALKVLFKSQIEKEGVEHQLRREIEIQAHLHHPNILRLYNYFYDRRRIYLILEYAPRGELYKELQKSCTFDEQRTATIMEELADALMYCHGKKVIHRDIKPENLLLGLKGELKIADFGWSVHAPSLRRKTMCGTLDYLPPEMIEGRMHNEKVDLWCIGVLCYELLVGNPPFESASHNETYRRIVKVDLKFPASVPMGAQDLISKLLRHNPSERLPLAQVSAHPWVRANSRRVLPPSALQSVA
"IC50 [1, 3] [nM]",melting point,IC50 [2] [nM],"inhibition at 1 µM ([1]; compound at 1.0 μM, mean values (n=2), read-out: percent inhibition of enzyme catalytic activity, Aur B (numbers in parentheses)) [%]",Compound,IC50 [1] [nM]
35.1,> 300 °C,> 10000,,"COc1ccc(C(=O)NC(=O)Nc2cc3c(cc2F)/C(=C/c2ccc[nH]2)C(=O)N3)cc1 [D48, (Z)—N-(3-((1H-pyrrol-2-yl)methylene)-5-fluoro-2-oxoindolin-6-ylcarbamoyl)-4-methoxybenzamide]",
> 1000,> 300 °C,> 1000,,"O=C1Nc2ccc(NC(=O)c3cccn(-c4ccc(F)cc4)c3=O)cc2/C1=C/c1ccc[nH]1 [D104, (Z)—N-(3-((1H-pyrrol-2-yl)methylene)-2-oxoindolin-5-yl)-1-(4-fluorophenyl)-2-oxo-1,2-dihydropyridine-3-carboxamide]",
14.3,> 300 °C,4.2,,"Cc1[nH]c(/C=C2\C(=O)Nc3cc(NC(=O)c4cccn(C)c4=O)ccc32)c(C)c1C(=O)O [D124, (Z)-2,4-dimethyl-5-((6-(1-methyl-2-oxo-1,2-dihydropyridine-3-carboxamido)-2-oxoindolin-3-ylidene)methyl)-1H-pyrrole-3-carboxylic acid]",
145,> 300 °C,501,,"O=C1Nc2cc(NC(=O)N3CCN(c4ccc(Cl)c(Cl)c4)C3=O)ccc2/C1=C/c1ccc[nH]1 [D86, (Z)—N-(3-((1H-pyrrol-2-yl)methylene)-2-oxoindolin-6-yl)-3-(3,4-dichlorophenyl)-2-oxoimidazolidine-1-carboxamide]",
21.5,262 to 267 °C (dec.),> 1000,,"COc1ccc(C(=O)NC(=O)Nc2ccc3c(c2)NC(=O)/C3=C\c2cccs2)cc1 [D22, (Z)-4-methoxy-N-(2-oxo-3-(thiophen-2-ylmethylene)indolin-6-ylcarbamoyl)benzamide]",
17.3,294 to 299 °C (dec.),359,,"O=C1Nc2cc(NC(=O)N3CCN(c4ccccc4)C3=O)ccc2/C1=C/c1ccc[nH]1 [D83, (Z)—N-(3-((1H-pyrrol-2-yl)methylene)-2-oxoindolin-6-yl)-2-oxo-3-phenylimidazolidine-1-carboxamide]",
,,58.2,11.2,"COc1ccc(C(=O)NC(=O)Nc2cccc3c2/C(=C/c2ccc[nH]2)C(=O)N3)cc1 [D13, (Z)—N-(3-((1H-pyrrol-2-yl)methylene)-2-oxoindolin-4-ylcarbamoyl)-4-methoxybenzamide]",
29.6,,,,"COc1ccc(NC(=O)CC(=O)Nc2ccc3c(c2)NC(=O)/C3=C\c2ccc[nH]2)cc1 [D76, (Z)—N^1-(3-((1H-pyrrol-2-yl)methylene)-2-oxoindolin-6-yl)-N^3-(4-methoxyphenyl)malonamide]",
1.8,,> 10000,,"O=C1Nc2cc(NC(=O)N3CCN(c4ccccc4F)C3=O)ccc2/C1=C/c1ccc[nH]1 [D90, (Z)—N-(3-((1H-pyrrol-2-yl)methylene)-2-oxoindolin-6-yl)-3-(2-fluorophenyl)-2-oxoimidazolidine-1-carboxamide]",
4.4,,> 10000,,"COc1ccc(N2CCN(C(=O)Nc3ccc4c(c3)NC(=O)/C4=C\c3ccc[nH]3)C2=O)c(F)c1 [D94, (Z)—N-(3-((1H-pyrrol-2-yl)methylene)-2-oxoindolin-6-yl)-3-(2-fluoro-4-methoxyphenyl)-2-oxoimidazolidine-1-carboxamide]",

# Further lines, the compound ahead of its results:
Compound,"IC50 [1, 3] [nM]",melting point,IC50 [2] [nM],"inhibition at 1 µM ([1]; compound at 1.0 μM, mean values (n=2), read-out: percent inhibition of enzyme catalytic activity, Aur B (numbers in parentheses)) [%]",IC50 [1] [nM]
"Cc1[nH]c(/C=C2\C(=O)Nc3cc(NC(=O)c4c[nH]cc(-c5cc(F)cc(F)c5)c4=O)ccc32)c(C)c1CCC(=O)O [D148, (Z)-3-(5-((6-(5-(3,5-difluorophenyl)-4-oxo-1,4-dihydropyridine-3-carboxamido)-2-oxoindolin-3-ylidene)methyl)-2,4-dimethyl-1H-pyrrol-3-yl)propanoic acid]",6.7,> 300 °C,50.4,,
"Cc1[nH]c(/C=C2\C(=O)Nc3cc(NC(=O)c4c[nH]cc(-c5ccc(F)cc5)c4=O)ccc32)c(C)c1CC(=O)N1CCOCC1 [D153, (Z)—N-(3-((3,5-dimethyl-4-(2-morpholino-2-oxoethyl)-1H-pyrrol-2-yl)methylene)-2-oxoindolin-6-yl)-5-(4-fluorophenyl)-4-oxo-1,4-dihydropyridine-3-carboxamide]",73.9,,2.7,,
"COc1ccc(C(=O)NC(=O)Nc2cc3c(cc2F)/C(=C/c2[nH]c(C)c(C(=O)O)c2C)C(=O)N3)c(F)c1 [D59, (Z)-5-((5-fluoro-6-(3-(2-fluoro-4-methoxybenzoyl)ureido)-2-oxoindolin-3-ylidene)methyl)-2,4-dimethyl-1H-pyrrole-3-carboxylic acid]",3,,406,,
COc1cc(F)c(C(=O)NC(=O)Nc2cc3c(cc2F)/C(=C/c2[nH]c(C)c(C(=O)O)c2C)C(=O)N3)c(F)c1 [D61],2.1,> 300 °C,380,,
"Cc1[nH]c(/C=C2\C(=O)Nc3cc(NC(=O)NC(=O)c4ccc([N+](=O)[O-])cc4)ccc32)c(C)c1C(=O)O [D38, (Z)-2,4-dimethyl-5-((6-(3-(4-nitrobenzoyl)ureido)-2-oxoindolin-3-ylidene)methyl)-1H-pyrrole-3-carboxylic acid]",1.2,293 to 298 °C (dec.),> 1000,,
"Cc1[nH]c(/C=C2\C(=O)Nc3cc(NC(=O)NC(=O)c4ccc(Cl)c(C(F)(F)F)c4)ccc32)c(C)c1CCC(=O)O (hydrate or solvate) [D37, (Z)-3-(5-((6-(3-(4-chloro-3-(trifluoromethyl)benzoyl)ureido)-2-oxo-indolin-3-ylidene)methyl)-2,4-dimethyl-1H-pyrrol-3-yl)propanoic acid]",,270 to 275 °C (dec.),,,
"COc1ccc(C(=O)NC(=O)Nc2ccc3c(c2)NC(=O)/C3=C\c2[nH]c(C)c(CCC(=O)O)c2C)c(F)c1 [D58, (Z)-3-(5-((6-(3-(2-fluoro-4-methoxybenzoyl)uriedo)-2-oxoindolin-3-ylidene)methyl)-2,4-dimethyl-1H-pyrrol-3-yl)propanoic acid]",1.3,,10,,
"Cc1[nH]c(/C=C2\C(=O)Nc3cc(NC(=O)c4c[nH]cc(-c5ccc(F)cc5F)c4=O)ccc32)c(C)c1CCC(=O)O [D147, (Z)-3-(5-((6-(5-(2,4-difluorophenyl)-4-oxo-1,4-dihydropyridine-3-carboxamido)-2-oxoindolin-3-ylidene)methyl)-2,4-dimethyl-1H-pyrrol-3-yl)propanoic acid]",6.2,,2.9,,
"CCOC(=O)CCc1c(C)[nH]c(/C=C2\C(=O)Nc3cc(NC(=O)NC(=O)c4ccc(OC)cc4F)ccc32)c1C [D63, (Z)-ethyl-3-(5-((6-(3-(2-fluoro-4-methoxybenzoyl)ureido)-2-oxoindolin-3-ylidene)methyl)-2,4-dimethyl-1H-pyrrol-3-yl)propanoate]",218,,3840,,
"COc1ccc(C(=O)NC(=O)Nc2cc3c(cc2F)/C(=C/c2[nH]c(C)c(CCC(=O)O)c2C)C(=O)N3)cc1 [D51, (Z)-3-(5-((5-fluoro-6-(3-(4-methoxybenzoyl)ureido)-2-oxoindolin-3-ylidene)-methyl)-2,4-dimethyl-1H-pyrrol-3-yl)propanoic acid]",,,,,3
COc1ccc(C(=O)NC(=O)Nc2cc3c(cc2F)/C(=C/c2[nH]c(C)c(C(=O)O)c2C)C(=O)N3)cc1 [D49],1.5,,909,,
"Cc1[nH]c(/C=C2\C(=O)Nc3cc(NC(=O)c4c[nH]cc(-c5ccc(F)cc5)c4=O)ccc32)c(C)c1C(=O)N1CCOCC1 [D152, (Z)—N-(3-((3,5-dimethyl-4-(morpholine-4-carbonyl)-1H-pyrrol-2-yl)methylene)-2-oxoindolin-6-yl)-5-(4-fluorophenyl)-4-oxo-1,4-dihydropyridine-3-carboxamide]",2.9,,753,,
"Cc1[nH]c(/C=C2\C(=O)Nc3cc(NC(=O)N4CCN(C5CC5)C4=O)ccc32)c(C)c1CCC(=O)O [D98, (Z)-3-(5-((6-(3-cyclopropyl-2-oxoimidazolidine-1-carboxamido)-2-oxoindolin-3-ylidene)methyl)-2,4-dimethyl-1H-pyrrol-3-yl)propanoic acid]",3.2,,119,,
"COc1ccc(C(=O)NC(=O)Nc2ccc3c(c2)NC(=O)/C3=C\c2[nH]c(C)c(CCC(=O)O)c2C)cc1 [D47, (Z)-3-(5-((6-(3-(4-methoxybenzoyl)ureido)-2-oxoindolin-3-ylidene)methyl)-2,4-dimethyl-1H-pyrrol-3-yl)propanoic acid]",1.2,,2.7,,
